In patent US6620916B1, “Modified physiologically active proteins and medicinal compositions containing the same” (Ajinomoto Co., Inc., priority 1996, dated 2003):
Entries after “also recorded” stand apart in the source; their conditions may differ.

Tests used:
ASGR = target: T1, ASGR (Mus musculus, UniProt P24721+P34927); test: Hepatocyte binding test with 125I-labeled ligands, Scatchard analysis; conditions: mouse hepatocytes, 4° C., 2 hours
T1 construct: endogenous in cells; host or cells: primary hepatocytes from C57BL/6 mice (7W, male)
T1 sequence (P34927 1-284): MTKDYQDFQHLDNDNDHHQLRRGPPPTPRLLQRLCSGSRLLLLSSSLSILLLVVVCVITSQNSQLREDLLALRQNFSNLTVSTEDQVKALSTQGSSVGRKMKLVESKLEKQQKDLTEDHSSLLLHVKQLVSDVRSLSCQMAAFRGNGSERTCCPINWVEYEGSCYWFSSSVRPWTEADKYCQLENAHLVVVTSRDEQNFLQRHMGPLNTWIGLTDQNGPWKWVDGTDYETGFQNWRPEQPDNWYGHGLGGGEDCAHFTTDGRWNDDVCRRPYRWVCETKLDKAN
T1 sequence (P24721 1-301): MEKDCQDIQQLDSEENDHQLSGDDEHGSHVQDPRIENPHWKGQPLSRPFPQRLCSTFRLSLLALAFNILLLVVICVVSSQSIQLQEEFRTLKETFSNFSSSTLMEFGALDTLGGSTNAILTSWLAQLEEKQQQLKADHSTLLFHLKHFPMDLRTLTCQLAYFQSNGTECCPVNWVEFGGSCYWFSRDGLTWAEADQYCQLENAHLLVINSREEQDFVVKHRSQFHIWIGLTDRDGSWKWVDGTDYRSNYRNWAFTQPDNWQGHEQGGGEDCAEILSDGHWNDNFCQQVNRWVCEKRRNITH
Protocol: The test for binding of a modified product to hepatocytes was conducted using mouse-separated hepatocytes prepared by the collagenase reflux method which is a modification of the method of Berry et al. (M. N. Berry et al., J. Cell Biol., 43, 506-520 (1969)). That is, seven mice (C57BL/6, 7W, male) were refluxed with a collagenase (type I, supplied by Wako Pure Chemical Industries, Ltd.) and each liver thereof was then severed. Each liver was filtered using a cell filter. Hepatocytes were then collected through centrifugation at a low rate (50 g×1 min), and incubated for from 1 to 4 hours in a D-MEM medium containing 10% FBS (supplied by Gibco, containing 100 U/ml of penicillin, 100 μg/ml of streptomycin and 50 μg/ml of gentamicin) using a tissue culture dish of 150 mm (supplied by Iwaki Garasu K.K.). […]
The hepatocyte binding test was conducted by the method of Chang et al. (T. Chang et al., BBA 942. 57-64 (1988)). […] Thereafter, the radioactivity by the non-specific binding was subtracted from the radioactivity of 0.8 ml of 1 ml of the 0.1 N NaOH solution containing 0.5% SDS, and the radioactivity of the total amount thereof was calculated from the above-obtained value. The thus-calculated value was defined as an amount of a bound fraction. […] The total protein amount of the cells was calculated by the Lorry method using 0.1 ml of the solution. […]

[1] = system: mouse-separated hepatocytes; test: Uptake of 125I-labeled modified product into hepatocytes; assay type: cell-based; conditions: 24 nM, 37° C.
Protocol: The test for uptake into hepatocytes was also conducted according to the method of Chang et al (T. Chang et al., BBA 942. 57-64 (1988)). The cells which were approximately in the almost confluent state were washed once with a D-MEM medium (pH 7.4) containing 0.1% BSA and 10 mM Hepes, and the buffer was added thereto. The mixture was incubated in 5% CO2 at 37° C. for 30 minutes. […] On the other hand, the non-specific uptake was conducted by adding 100 mM N-acetylgalactosamine in each of the labeled solutions. Each plate incubated was moved on an ice bath after the reaction. A part of the medium was sampled, and a D-PBS solution (free from Ca^2+ and Mg^2+) containing 20 mM EGTA cooled at 4° C. was added thereto. The mixture was allowed to stand for 5 minutes. This washing was repeated twice. Further, the plate was washed once with a D-PBS solution (free from Ca^2+ and Mg^2+) cooled, and then allowed to stand at −20° C. for 30 minutes or more. The radioactivity by the non-specific binding was subtracted from the radioactivity of 0.8 ml of 1 ml of the 0.1 N NaOH solution containing 0.5% SDS in each well, and the radioactivity of the total amount thereof was calculated from the above-obtained value. The thus-calculated value was defined as an amount of an uptake fraction. Meanwhile, a value obtained by subtracting the radioactivity by the non-specific degradation from the radioactivity of the total trichloroacetic acid-soluble fraction in the medium was defined as an amount of a degradation fraction. The uptake tast was conducted with each point of n=3. The total protein amount of the cells was calculated by the Lorry method with respect to 0.1 ml of the solution.

Compound: CC(C)(C)OC(=O)NC(Cc1ccc(O)cc1)C(=O)NCCCCCC(=O)NC(CCC(=O)NC(CCC(=O)NCCOCCOCCOC1OC(CO)C(O)C(O)C1O)C(=O)NCCOCCOCCOC1OC(CO)C(O)C(O)C1O)C(=O)NCCOCCOCCOC1OC(CO)C(O)C(O)C1O (centres unmarked) [(Gal)3-Tyr-Boc]
- dissociation constant (Kd1) of high affinity site (ASGR): in the order level of multi-ten nM

Compound: CC(=O)NC1C(OCCOCCOCCNC(=O)CCC(NC(=O)CCC(NC(=O)CCCCCNC(=O)C(Cc2ccc(O)cc2)NC(=O)OC(C)(C)C)C(=O)NCCOCCOCCOC2OC(CO)C(O)C(O)C2NC(C)=O)C(=O)NCCOCCOCCOC2OC(CO)C(O)C(O)C2NC(C)=O)OC(CO)C(O)C1O (centres unmarked) [(GalNAc)3-Tyr-Boc]
- dissociation constant (Kd1) of high affinity site (ASGR): in the order level of multi-ten nM; also recorded: lower than that of (Gal)3-Tyr-Boc

Compound: ASOR: asialoorosomucoid produced from human orosomucoid, natural ligand of ASGR
- time to saturation of uptake [1]: 1 h
- degradation component ([1]; 0-4 hours): gradually increased with the lapse of time
- uptake component in hepatocytes ([1]; 0-4 hours): observed after 30 minutes of the incubation
